# Assay results from PubChem BioAssay (NCI).
#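 Values below derive from 48-hour exposures of cells grown in 96-well plates, with endpoints linearly interpolated between the two concentrations bracketing the appropriate inhibition level. TGI is the concentration that stops growth completely.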
# Tests used:
# Experiment in all cases: growth of human tumour cells (NCI), 48 h
# [1] = system: 786-0 renal
# [2] = system: A498 renal
# [3] = system: A549 NSCLC
# [4] = system: ACHN renal
# [5] = system: CAKI-1 renal
# [6] = system: CCRF-CEM leukemia
# [7] = system: COLO 205 colon
# [8] = system: DLD-1 colon
# [9] = system: DMS 114 small cell lung
# [10] = system: DMS 273 small cell lung
# [11] = system: EKVX NSCLC
# [12] = system: HCC-2998 colon
# [13] = system: HCT-116 colon
# [14] = system: HCT-15 colon
# [15] = system: HL-60(TB) leukemia
# [16] = system: HOP-18 NSCLC
# [17] = system: HOP-62 NSCLC
# [18] = system: HOP-92 NSCLC
# [19] = system: HT29 colon
# [20] = system: IGROV1 ovarian
# [21] = system: K-562 leukemia
# [22] = system: KM12 colon
# [23] = system: KM20L2 colon
# [24] = system: LOX IMVI melanoma
# [25] = system: LXFL 529 NSCLC
# [26] = system: M14 melanoma
# [27] = system: M19-MEL melanoma
# [28] = system: MALME-3M melanoma
# [29] = system: MOLT-4 leukemia
# [30] = system: NCI-H226 lung
# [31] = system: NCI-H23 lung
# [32] = system: NCI-H460 lung
# [33] = system: NCI-H522 lung
# [34] = system: OVCAR-3 ovarian
# [35] = system: OVCAR-4 ovarian
# [36] = system: OVCAR-5 ovarian
# [37] = system: OVCAR-8 ovarian
# [38] = system: RXF 393 renal
# [39] = system: SF-268 CNS
# [40] = system: SF-295 CNS
# [41] = system: SF-539 CNS
# [42] = system: SK-MEL-2 melanoma
# [43] = system: SK-MEL-28 melanoma
# [44] = system: SK-MEL-5 melanoma
# [45] = system: SK-OV-3 ovarian
# [46] = system: SN12C renal
# [47] = system: SNB-19 CNS
# [48] = system: SNB-75 CNS
# [49] = system: SNB-78 CNS
# [50] = system: SW-620 colon
# [51] = system: TK-10 renal
# [52] = system: U251 CNS
# [53] = system: UACC-257 melanoma
# [54] = system: UACC-62 melanoma
# [55] = system: UO-31 renal
# [56] = system: XF 498 CNS
# [57] = system: RPMI-8226 leukemia
# [58] = system: SR leukemia
smiles,measurement,setting,value
NC(=O)NNC(=O)NC12CC3CC(CC(C3)C1)C2,TGI,[1],> 100 µM
same,TGI,[2],> 100 µM
same,TGI,[3],> 100 µM
same,TGI,[4],> 100 µM
same,TGI,[5],> 100 µM
same,TGI,[6],> 100 µM
same,TGI,[7],> 100 µM
same,TGI,[8],> 100 µM
same,TGI,[9],> 100 µM
same,TGI,[10],> 100 µM
same,TGI,[11],> 100 µM
same,TGI,[12],> 100 µM
same,TGI,[13],> 100 µM
same,TGI,[14],> 100 µM
same,TGI,[15],> 100 µM
same,TGI,[16],> 100 µM
same,TGI,[17],> 100 µM
same,TGI,[18],> 100 µM
same,TGI,[19],> 100 µM
same,TGI,[20],> 100 µM
same,TGI,[21],> 100 µM
same,TGI,[22],> 100 µM
same,TGI,[23],> 100 µM
same,TGI,[24],> 100 µM
same,TGI,[25],> 100 µM
same,TGI,[26],> 100 µM
same,TGI,[27],> 100 µM
same,TGI,[28],> 100 µM
same,TGI,[29],> 100 µM
same,TGI,[30],> 100 µM
same,TGI,[31],> 100 µM
same,TGI,[32],> 100 µM
same,TGI,[33],> 100 µM
same,TGI,[34],> 100 µM
same,TGI,[35],> 100 µM
same,TGI,[36],> 100 µM
same,TGI,[37],> 100 µM
same,TGI,[38],> 100 µM
same,TGI,[39],> 100 µM
same,TGI,[40],> 100 µM
same,TGI,[41],> 100 µM
same,TGI,[42],> 100 µM
same,TGI,[43],> 100 µM
same,TGI,[44],> 100 µM
same,TGI,[45],> 100 µM
same,TGI,[46],> 100 µM
same,TGI,[47],> 100 µM
same,TGI,[48],> 100 µM
same,TGI,[49],> 100 µM
same,TGI,[50],> 100 µM
same,TGI,[51],> 100 µM
same,TGI,[52],> 100 µM
same,TGI,[53],> 100 µM
same,TGI,[54],> 100 µM
same,TGI,[55],> 100 µM
same,TGI,[56],> 100 µM
CC(N)Cc1ccc(Cl)c(Cl)c1 (centres undefined),TGI,[1],> 100 µM
same,TGI,[2],> 90.6 µM
same,TGI,[3],> 100 µM
same,TGI,[4],> 84.6 µM
same,TGI,[5],74.5 µM
same,TGI,[6],> 78.1 µM
same,TGI,[7],36.5 µM
same,TGI,[8],> 100 µM
same,TGI,[9],48.1 µM
same,TGI,[10],> 71.9 µM
same,TGI,[11],> 100 µM
same,TGI,[12],31.2 µM
same,TGI,[13],> 100 µM
same,TGI,[14],84.9 µM
same,TGI,[15],42.4 µM
same,TGI,[16],> 77.1 µM
same,TGI,[17],> 100 µM
same,TGI,[18],57.4 µM
same,TGI,[19],56.5 µM
same,TGI,[20],> 100 µM
same,TGI,[21],44 µM
same,TGI,[22],> 100 µM
same,TGI,[23],53.7 µM
same,TGI,[24],> 68.5 µM
same,TGI,[25],34.9 µM
same,TGI,[26],33.9 µM
same,TGI,[27],47 µM
same,TGI,[28],35.5 µM
same,TGI,[29],71.2 µM
same,TGI,[30],> 100 µM
same,TGI,[31],> 100 µM
same,TGI,[32],97.1 µM
same,TGI,[33],> 66.9 µM
same,TGI,[34],> 100 µM
same,TGI,[35],> 100 µM
same,TGI,[36],> 82.5 µM
same,TGI,[37],> 100 µM
same,TGI,[57],> 84.6 µM
same,TGI,[38],77.2 µM
same,TGI,[39],> 100 µM
same,TGI,[40],> 80.1 µM
same,TGI,[41],> 60.2 µM
same,TGI,[42],37.6 µM
same,TGI,[43],39.1 µM
same,TGI,[44],31 µM
same,TGI,[45],> 100 µM
same,TGI,[46],> 74 µM
same,TGI,[47],> 100 µM
same,TGI,[48],> 92.3 µM
same,TGI,[49],> 100 µM
same,TGI,[58],48.1 µM
same,TGI,[50],51.8 µM
same,TGI,[51],> 83 µM
same,TGI,[52],> 89.6 µM
same,TGI,[53],54.9 µM
same,TGI,[54],50.2 µM
same,TGI,[55],66.3 µM
same,TGI,[56],23.7 µM
COc1ccc(CCC2c3cc(OC)c(OC)cc3CCN2C)cc1OC (centres undefined),TGI,[1],> 100 µM
same,TGI,[3],> 100 µM
same,TGI,[4],> 100 µM
same,TGI,[5],> 100 µM
same,TGI,[6],> 100 µM
same,TGI,[7],> 100 µM
same,TGI,[8],> 100 µM
same,TGI,[9],> 100 µM
same,TGI,[11],> 100 µM
same,TGI,[12],> 100 µM
same,TGI,[13],> 100 µM
same,TGI,[14],> 100 µM
same,TGI,[15],> 100 µM
same,TGI,[16],> 100 µM
same,TGI,[17],> 100 µM
same,TGI,[18],> 100 µM
same,TGI,[19],> 100 µM
same,TGI,[20],> 100 µM
same,TGI,[21],> 100 µM
same,TGI,[22],> 100 µM
same,TGI,[23],> 100 µM
same,TGI,[24],> 100 µM
same,TGI,[25],> 100 µM
same,TGI,[26],> 100 µM
same,TGI,[27],> 100 µM
same,TGI,[28],> 100 µM
same,TGI,[29],> 100 µM
same,TGI,[30],> 100 µM
same,TGI,[31],> 100 µM
same,TGI,[32],> 100 µM
same,TGI,[33],> 100 µM
same,TGI,[34],> 100 µM
same,TGI,[35],> 100 µM
same,TGI,[36],> 100 µM
same,TGI,[37],> 100 µM
same,TGI,[57],> 100 µM
same,TGI,[38],> 100 µM
same,TGI,[39],> 100 µM
same,TGI,[40],> 100 µM
same,TGI,[41],> 100 µM
same,TGI,[42],> 100 µM
same,TGI,[43],> 100 µM
same,TGI,[44],> 100 µM
same,TGI,[45],> 100 µM
same,TGI,[46],> 100 µM
same,TGI,[47],> 100 µM
same,TGI,[48],> 100 µM
same,TGI,[49],> 100 µM
same,TGI,[58],> 100 µM
same,TGI,[50],> 100 µM
same,TGI,[51],> 100 µM
same,TGI,[52],> 100 µM
same,TGI,[53],> 100 µM
same,TGI,[54],> 100 µM
same,TGI,[55],> 100 µM
